PubChem BioAssay (NCI)
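Cells were grown in 96-well plates and exposed to each compound for 48 hours at five concentrations; endpoints were interpolated linearly between bracketing concentrations, or set to the highest concentration if not reached. GI50 marks 50% less growth. The concentration for full growth arrest is given as TGI.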

Tests used:
Assay in all cases: NCI-60 cell line screen, 48 h
[1] = tested on: CAKI-1 renal
[2] = tested on: LOX IMVI melanoma
[3] = tested on: DU-145 prostate
[4] = tested on: HOP-92 NSCLC
[5] = tested on: NCI-H23 lung
[6] = tested on: MDA-MB-231 breast
[7] = tested on: M14 melanoma
[8] = tested on: HCC-2998 colon
[9] = tested on: HCT-15 colon
[10] = tested on: SN12C renal
[11] = tested on: OVCAR-8 ovarian
[12] = tested on: K-562 leukemia
[13] = tested on: SK-MEL-5 melanoma
[14] = tested on: SW-620 colon
[15] = tested on: SR leukemia
[16] = tested on: NCI-H460 lung
[17] = tested on: HOP-62 NSCLC
[18] = tested on: KM12 colon
[19] = tested on: SK-OV-3 ovarian
[20] = tested on: MDA-MB-468 breast
[21] = tested on: MCF7 breast
[22] = tested on: OVCAR-3 ovarian
[23] = tested on: SK-MEL-28 melanoma
[24] = tested on: HS 578T breast
[25] = tested on: COLO 205 colon
[26] = tested on: ACHN renal
[27] = tested on: OVCAR-4 ovarian
[28] = tested on: OVCAR-5 ovarian
[29] = tested on: RXF 393 renal
[30] = tested on: MDA-MB-435
[31] = tested on: UO-31 renal
[32] = tested on: HCT-116 colon
[33] = tested on: PC-3 prostate
[34] = tested on: UACC-62 melanoma
[35] = tested on: HT29 colon
[36] = tested on: T-47D breast
[37] = tested on: IGROV1 ovarian
[38] = tested on: RPMI-8226 leukemia
[39] = tested on: MALME-3M melanoma
[40] = tested on: NCI/ADR-RES ovarian
[41] = tested on: 786-0 renal
[42] = tested on: EKVX NSCLC
[43] = tested on: A549 NSCLC
[44] = tested on: HL-60(TB) leukemia
[45] = tested on: BT-549 breast
[46] = tested on: A498 renal
[47] = tested on: NCI-H522 lung
[48] = tested on: MOLT-4 leukemia
[49] = tested on: CCRF-CEM leukemia
[50] = tested on: SK-MEL-2 melanoma
[51] = tested on: SNB-19 CNS
[52] = tested on: SF-539 CNS
[53] = tested on: NCI-H226 lung
[54] = tested on: UACC-257 melanoma
[55] = tested on: TK-10 renal
[56] = tested on: U251 CNS
[57] = tested on: SF-295 CNS
[58] = tested on: SF-268 CNS

## COc1ccc2c3nc4cc(C)c(C)cc4nc3n(CCN(C)C)c2c1
[1]
  GI50: 0.981 µM
  TGI: 6.65 µM
[2]
  GI50: 1.09 µM
  TGI: 2.28 µM
[3]
  GI50: 2.74 µM
  TGI: 12 µM
[4]
  GI50: 0.452 µM
  TGI: 6.02 µM
[5]
  GI50: 2.51 µM
  TGI: 11.5 µM
[6]
  GI50: 1.79 µM
  TGI: 9.32 µM
[7]
  GI50: 1.32 µM
  TGI: 2.95 µM
[8]
  GI50: 1.31 µM
  TGI: 3.44 µM
[9]
  GI50: 1.31 µM
  TGI: 3.54 µM
[10]
  GI50: 1.54 µM
  TGI: 5.96 µM
[11]
  GI50: 1.43 µM
  TGI: 3.47 µM
[12]
  GI50: 1.44 µM
  TGI: 4.89 µM
[13]
  GI50: 1.5 µM
  TGI: 2.98 µM
[14]
  GI50: 1.27 µM
  TGI: 8.47 µM
[15]
  GI50: 1.32 µM
  TGI: 5.33 µM
[16]
  GI50: 1.21 µM
  TGI: 3.2 µM
[17]
  GI50: 2.53 µM
  TGI: 13 µM
[18]
  GI50: 2.31 µM
  TGI: 11.4 µM
[19]
  GI50: 3.58 µM
  TGI: 16.2 µM
[20]
  GI50: 1.17 µM
  TGI: 3.18 µM
[21]
  GI50: 1.02 µM
  TGI: 2.95 µM
[22]
  GI50: 2.24 µM
  TGI: 5.23 µM
[23]
  GI50: 3.23 µM
  TGI: 11.9 µM
[24]
  GI50: 7.19 µM
  TGI: 32.5 µM
[25]
  GI50: 5.93 µM
  TGI: 20.8 µM
[26]
  GI50: 1.38 µM
  TGI: 4.19 µM
[27]
  GI50: 2.82 µM
  TGI: 16.2 µM
[28]
  GI50: 2.96 µM
  TGI: 12.6 µM
[29]
  GI50: 2.38 µM
  TGI: 9.71 µM
[30]
  GI50: 2.5 µM
  TGI: 11 µM
[31]
  GI50: 0.542 µM
  TGI: 7.76 µM
[32]
  GI50: 1.27 µM
  TGI: 2.74 µM
[33]
  GI50: 1.58 µM
  TGI: 12.9 µM
[34]
  GI50: 1.61 µM
  TGI: 5.2 µM
[35]
  GI50: 3.02 µM
  TGI: 12.6 µM
[36]
  GI50: 1.78 µM
  TGI: 13.6 µM
[37]
  GI50: 1.46 µM
  TGI: 13.3 µM
[38]
  GI50: 1.81 µM
  TGI: 4.85 µM
[39]
  GI50: 1.45 µM
  TGI: 3.28 µM
[40]
  GI50: 2.28 µM
  TGI: 12 µM
[41]
  GI50: 2.73 µM
  TGI: 10.5 µM
[42]
  GI50: 3.34 µM
  TGI: 15.5 µM
[43]
  GI50: 1.34 µM
  TGI: 3.34 µM
[44]
  GI50: 1.18 µM
  TGI: 2.95 µM
[45]
  GI50: 2.94 µM
  TGI: 16.4 µM
[46]
  GI50: 11 µM
  TGI: 25.6 µM
[47]
  GI50: 0.665 µM
  TGI: 7.87 µM
[48]
  GI50: 2.2 µM
  TGI: 7.29 µM
[49]
  GI50: 3.47 µM
  TGI: 13.5 µM
[50]
  GI50: 3.88 µM
  TGI: 15.8 µM
[51]
  GI50: 3.42 µM
  TGI: 16.3 µM
[52]
  GI50: 1.49 µM
  TGI: 2.98 µM
[53]
  GI50: 1.58 µM
  TGI: 3.81 µM
[54]
  GI50: 3.97 µM
  TGI: 15.1 µM
[55]
  GI50: 6.87 µM
  TGI: 19 µM
[56]
  GI50: 1.39 µM
  TGI: 3.89 µM
[57]
  GI50: 1.65 µM
  TGI: 5.55 µM
[58]
  GI50: 3.41 µM
  TGI: 16.2 µM
